Reference: article PMC12203311, “Design, synthesis, in silico and in vitro evaluation of pyrrole–indole hybrids as dual tubulin and aromatase inhibitors with potent anticancer activities” (RSC Advances, 2025)

Columns and labels:
Test in all cases: NCI60 five-dose screen
[1] = test system: HS 578T; format: cell-based; settings: Homo sapiens, breast cancer; for CC50: read-out: LC50 (the source's name)
[2] = test system: PC-3; format: cell-based; settings: Homo sapiens, PC-3, prostate cancer; for CC50: read-out: LC50 (the source's name)
[3] = test system: A498; format: cell-based; settings: Homo sapiens, A498, renal cancer; for CC50: read-out: LC50 (the source's name)
[4] = test system: SK-MEL-28; format: cell-based; settings: Homo sapiens, SK-MEL-28, melanoma; for CC50: read-out: LC50 (the source's name)
[5] = test system: SF-295; format: cell-based; settings: Homo sapiens, SF-295, CNS cancer; for CC50: read-out: LC50 (the source's name)
[6] = test system: KM12; format: cell-based; settings: Homo sapiens, KM12, colon cancer; for CC50: read-out: LC50 (the source's name)
[7] = test system: A549/ATCC; format: cell-based; settings: Homo sapiens, NSC lung cancer; for CC50: read-out: LC50 (the source's name)
[8] = test system: SN12C; format: cell-based; settings: Homo sapiens, renal cancer; for CC50: read-out: LC50 (the source's name)
[9] = test system: NCI/ADR-RES; format: cell-based, human; settings: Homo sapiens, ovarian cancer; for CC50: read-out: LC50 (the source's name)
[10] = test system: HOP-92; format: cell-based; settings: Homo sapiens, HOP-92, NSC lung cancer; for CC50: read-out: LC50 (the source's name)
[11] = test system: MDA-MB-231/ATCC; format: cell-based; settings: Homo sapiens, breast cancer; for CC50: read-out: LC50 (the source's name)
[12] = test system: SF-268; format: cell-based; settings: Homo sapiens, SF-268, CNS cancer; for CC50: read-out: LC50 (the source's name)
[13] = test system: UACC-62; format: cell-based; settings: Homo sapiens, UACC-62, melanoma; for CC50: read-out: LC50 (the source's name)
[14] = test system: TK-10; format: cell-based; settings: Homo sapiens, TK-10, renal cancer; for CC50: read-out: LC50 (the source's name)
[15] = test system: MDA-MB-468; format: cell-based; settings: Homo sapiens, MDA-MB-468, breast cancer; for CC50: read-out: LC50 (the source's name)
[16] = test system: RXF 393; format: cell-based; settings: Homo sapiens, RXF 393, renal cancer; for CC50: read-out: LC50 (the source's name)
[17] = test system: MALME-3M; format: cell-based; settings: Homo sapiens, melanoma; for CC50: read-out: LC50 (the source's name)
[18] = test system: HOP-62; format: cell-based; settings: Homo sapiens, HOP-62, NSC lung cancer; for CC50: read-out: LC50 (the source's name)
[19] = test system: SK-OV-3; format: cell-based; settings: Homo sapiens, SK-OV-3, ovarian cancer; for CC50: read-out: LC50 (the source's name)
[20] = test system: HL-60 (TB); format: cell-based; settings: Homo sapiens, leukemia; for CC50: read-out: LC50 (the source's name)
[21] = test system: UO-31; format: cell-based; settings: Homo sapiens, UO-31, renal cancer; for CC50: read-out: LC50 (the source's name)
[22] = test system: BT-549; format: cell-based; settings: Homo sapiens, BT-549, breast cancer; for CC50: read-out: LC50 (the source's name)
[23] = test system: IGROV1; format: cell-based; settings: Homo sapiens, IGROV-1; IGROV1, ovarian cancer
[24] = test system: NCI-H23; format: cell-based; settings: Homo sapiens, NCI-H23, NSC lung cancer; for CC50: read-out: LC50 (the source's name)
[25] = test system: NCI-H322M; format: cell-based; settings: Homo sapiens, NSC lung cancer; for CC50: read-out: LC50 (the source's name)
[26] = test system: HCT-15; format: cell-based; settings: Homo sapiens, HCT-15, colon cancer; for CC50: read-out: LC50 (the source's name)
[27] = test system: COLO 205; format: cell-based, human; settings: Homo sapiens; for CC50: COLO 205, COLO 205, colon cancer, read-out: LC50 (the source's name); for GI50: COLO 205, colon cancer
[28] = test system: SW-620; format: cell-based; settings: Homo sapiens, SW-620, colon cancer; for CC50: read-out: LC50 (the source's name)
[29] = test system: SK-MEL-2; format: cell-based; settings: Homo sapiens, SK-MEL-2, melanoma; for CC50: read-out: LC50 (the source's name)
[30] = test system: EKVX; format: cell-based; settings: Homo sapiens, NSC lung cancer; for CC50: read-out: LC50 (the source's name)
[31] = test system: T-47D; format: cell-based; settings: Homo sapiens, T47D, breast cancer; for CC50: read-out: LC50 (the source's name)
[32] = test system: OVCAR-3; format: cell-based; settings: Homo sapiens, OVCAR-3, ovarian cancer; for CC50: read-out: LC50 (the source's name)

SMILES: O=C(N/N=C/c1[nH]ccc1Cl)c1[nH]c2ccc(Br)cc2c1-c1ccccc1 [Derivative 3g, (E)-5-Bromo-N′-((3-chloro-1H-pyrrol-2-yl)methylene)-3-phenyl-1H-indole-2-carbohydrazide]
- GI50 [1]: 0.59 µM
- CC50 [1]: > 100 µM
- GI50 [2]: 0.826 µM
- CC50 [2]: 63.6 µM
- GI50 [3]: 10.6 µM
- CC50 [3]: 49.3 µM
- GI50 [4]: 0.909 µM
- CC50 [4]: 47.5 µM
- GI50 [5]: 0.501 µM
- CC50 [5]: 26 µM
- GI50 [6]: 0.488 µM
- CC50 [6]: 34.6 µM
- GI50 [7]: 0.838 µM
- CC50 [7]: 53.4 µM
- GI50 [8]: 1.34 µM
- CC50 [8]: 29.2 µM
- GI50 [9]: 0.219 µM
- CC50 [9]: 10.5 µM
- GI50 [10]: 2.79 µM
- CC50 [10]: 50.1 µM
- GI50 [11]: 2.07 µM
- CC50 [11]: 28.2 µM
- GI50 [12]: 1.76 µM
- CC50 [12]: 53 µM
- GI50 [13]: 0.411 µM
- CC50 [13]: 37 µM
- GI50 [14]: 7.16 µM
- CC50 [14]: 49.5 µM
- GI50 [15]: 0.297 µM
- CC50 [15]: 24.7 µM
- GI50 [16]: 0.346 µM
- CC50 [16]: 42.1 µM
- GI50 [17]: 0.596 µM
- CC50 [17]: 48.4 µM
- GI50 [18]: 3.8 µM
- CC50 [18]: 60.8 µM
- GI50 [19]: 11.6 µM
- CC50 [19]: 64.1 µM
- GI50 [20]: 0.891 µM
- CC50 [20]: > 100 µM
- GI50 [21]: 0.577 µM
- CC50 [21]: 35.7 µM
- GI50 [22]: 3.56 µM
- CC50 [22]: 46.8 µM
- GI50 [23]: 0.734 µM
- GI50 [24]: 0.884 µM
- CC50 [24]: 34.4 µM
- GI50 [25]: 3.14 µM
- CC50 [25]: 48.8 µM
- GI50 [26]: 0.465 µM
- CC50 [26]: 34.3 µM
- CC50 [27]: 40.3 µM
- GI50 [27]: 1.66 µM
- GI50 [28]: 0.499 µM
- CC50 [28]: 50.2 µM
- GI50 [29]: 1.07 µM
- CC50 [29]: 38.7 µM
- GI50 [30]: 2.66 µM
- CC50 [30]: 38.1 µM
- GI50 [31]: 2.5 µM
- CC50 [31]: 81.9 µM
- GI50 [32]: 0.409 µM
- CC50 [32]: 34.9 µM

SMILES: CCOC(=O)c1ccc(/C=N/NC(=O)c2[nH]c3ccc(Br)cc3c2-c2ccccc2)[nH]1 [Derivative 3i, Ethyl (E)-5-((2-(5-bromo-3-phenyl-1H-indole-2-carbonyl)hydrazono)methyl)-1H-pyrrole-2-carboxylate]
- GI50 [1]: 1.21 µM
- CC50 [1]: > 100 µM
- GI50 [2]: 2.28 µM
- CC50 [2]: > 100 µM
- GI50 [3]: 10.5 µM
- CC50 [3]: 55.2 µM
- GI50 [4]: 2.65 µM
- CC50 [4]: 94.5 µM
- GI50 [5]: 1.8 µM
- CC50 [5]: 38.1 µM
- GI50 [6]: 2.22 µM
- CC50 [6]: 38 µM
- GI50 [7]: 3.25 µM
- CC50 [7]: 79.4 µM
- GI50 [8]: 2.86 µM
- CC50 [8]: 36.2 µM
- GI50 [9]: 0.897 µM
- CC50 [9]: 9.2 µM
- GI50 [10]: 2.33 µM
- CC50 [10]: > 100 µM
- GI50 [11]: 2.63 µM
- CC50 [11]: 33.2 µM
- GI50 [12]: 2.68 µM
- CC50 [12]: > 100 µM
- GI50 [13]: 0.614 µM
- CC50 [13]: 48.5 µM
- GI50 [14]: 6.92 µM
- CC50 [14]: > 100 µM
- GI50 [15]: 1.63 µM
- CC50 [15]: 36.6 µM
- GI50 [16]: 1.69 µM
- CC50 [16]: 66.4 µM
- GI50 [17]: 3.83 µM
- CC50 [17]: 54.8 µM
- GI50 [18]: 3.65 µM
- CC50 [18]: > 100 µM
- GI50 [19]: 4.01 µM
- CC50 [19]: > 100 µM
- GI50 [20]: 1.84 µM
- CC50 [20]: > 100 µM
- GI50 [21]: 1.48 µM
- CC50 [21]: > 100 µM
- GI50 [22]: 3.47 µM
- CC50 [22]: > 100 µM
- GI50 [23]: 2.02 µM
- GI50 [24]: 2.59 µM
- CC50 [24]: 43.2 µM
- GI50 [25]: 3.3 µM
- CC50 [25]: > 100 µM
- GI50 [26]: 2.48 µM
- CC50 [26]: 40.5 µM
- CC50 [27]: 36.9 µM
- GI50 [27]: 3.15 µM
- GI50 [28]: 3.93 µM
- CC50 [28]: 53.6 µM
- GI50 [29]: 2.38 µM
- CC50 [29]: 55 µM
- GI50 [30]: 4.29 µM
- CC50 [30]: > 100 µM
- GI50 [31]: 4.2 µM
- CC50 [31]: > 100 µM
- GI50 [32]: 2.63 µM
- CC50 [32]: 40.7 µM

SMILES: CCc1ccc(/C=N/NC(=O)c2[nH]c3ccc(Br)cc3c2-c2ccccc2)[nH]1 [Derivative 3s, (E)-5-Bromo-N′-((5-ethyl-1H-pyrrol-2-yl)methylene)-3-phenyl-1H-indole-2-carbohydrazide]
- GI50 [1]: 0.294 µM
- CC50 [1]: > 100 µM
- GI50 [2]: 0.532 µM
- CC50 [2]: > 100 µM
- GI50 [3]: 5.59 µM
- CC50 [3]: 47.2 µM
- GI50 [4]: 0.979 µM
- CC50 [4]: 49.8 µM
- GI50 [5]: 0.246 µM
- CC50 [5]: 31.9 µM
- GI50 [6]: 0.289 µM
- CC50 [6]: 37.5 µM
- GI50 [7]: 0.399 µM
- CC50 [7]: 70.3 µM
- GI50 [8]: 0.392 µM
- CC50 [8]: 30.3 µM
- GI50 [9]: 0.253 µM
- CC50 [9]: 30.2 µM
- GI50 [10]: 2.01 µM
- CC50 [10]: 40.1 µM
- GI50 [11]: 0.63 µM
- CC50 [11]: 48.4 µM
- GI50 [12]: 1.47 µM
- CC50 [12]: 83 µM
- GI50 [13]: 0.381 µM
- CC50 [13]: 38.1 µM
- GI50 [14]: 2.91 µM
- CC50 [14]: 46.3 µM
- GI50 [15]: 0.248 µM
- CC50 [15]: 25.9 µM
- GI50 [16]: 0.194 µM
- CC50 [16]: 28.9 µM
- GI50 [17]: 0.88 µM
- CC50 [17]: 46.5 µM
- GI50 [18]: 0.861 µM
- CC50 [18]: 46.2 µM
- GI50 [19]: 0.514 µM
- CC50 [19]: 50.1 µM
- GI50 [20]: 0.235 µM
- CC50 [20]: > 100 µM
- GI50 [21]: 0.644 µM
- CC50 [21]: 59.9 µM
- GI50 [22]: 0.979 µM
- CC50 [22]: 30.3 µM
- GI50 [23]: 0.612 µM
- LC50 (concentration causing 50% net cell kill) [23]: 43.3 µM
- GI50 [24]: 0.484 µM
- CC50 [24]: 42.6 µM
- GI50 [25]: 1.73 µM
- CC50 [25]: 64.6 µM
- GI50 [26]: 0.349 µM
- CC50 [26]: 37.4 µM
- CC50 [27]: 26.1 µM
- GI50 [27]: 0.316 µM
- GI50 [28]: 0.558 µM
- CC50 [28]: 43.2 µM
- GI50 [29]: 0.647 µM
- CC50 [29]: 45.9 µM
- GI50 [30]: 0.453 µM
- CC50 [30]: 43 µM
- GI50 [31]: 0.681 µM
- CC50 [31]: 52.7 µM
- GI50 [32]: 0.356 µM
- CC50 [32]: 36.1 µM
